Assays:
[1] = test system: Jurkat, HCC1954, NCI-N87, BxPC-3, SK-OV-3, and JIMT-1 Cell Lines; test: Cellular cytotoxicity, Example 3.1, control cytotoxin on all cell lines; format: cell-based, Human; details: Example 3.1 cell lines
Method: (§1) Compounds were tested on one or more of Human T-cell leukemia cell line Jurkat (ATCC: TIB-152); Human breast cancer cell lines HCC1954 (ATCC: CRL-2338) and JIMT-1 (DSMZ: ACC 589); Human Pancreatic cell line BxPC-3 (ATCC: CRL.1687), Human ovarian adenocarcinoma cell line SK-OV-3 (ATCC: HTB-77) and Human gastric carcinoma cell line NCI-N87 (ATCC: CRL. 5822); to assess their cytotoxicity.
(§2) Briefly, cells were obtained from commercial sources and cultured as described in the product sheet provided. Cells were removed from their culture vessels and the resulting cell suspension was counted using a ViCell (Beckman Coulter), then seeded at 25,000 cells/mL (2,500 cells/well) in Costar 3904 black walled, flat bottomed 96-well plates (cells were seeded in the inner 60 wells of 96-well TC plates, and outer edge wells filled with water). […] After the incubation, cell viability was measured using CellTiter-Glo® by adding 30 μL of prepared CellTiter-Glo® reagent to each assay well. The mixtures were incubated for at least twenty minutes in the dark prior to measuring emitted luminescence using a microplate luminometer (500 ms integration time). The collected relative luminescence units (RLU) were converted to % cytotoxicity using the growth medium alone control mentioned above (% Cytotoxicity=1−[well RLU/average medium alone control RLU]×[…]).

Jurkat cell line = test: Cytotoxicity of compounds, Example 3 (CellTiter-Glo, 3 days); format: cell-based, Human; details: titrated 1:3 starting with 30 nM
Method: Compounds were tested on Jurkat and HCC1954 cell lines to assess their cytotoxicity. Compounds were titrated 1:3 starting at various concentrations (30 nM to 1000 nM). Control cytotoxin HTI-286 (see, e.g., U.S. Pat. No. 7,579,323) was also titrated 1:3 across starting with a 30 nM concentration. Plates were incubated for 3 days. Cell viability was quantified using 30 μL/well of 1× CellTiter-Glo reagent.
Each cell line was grown in its respective growth medium until seeding day. Cells were removed from their culture vessels and the resulting cell suspension was counted using the ViCell. Cells were then diluted in their growth medium to 25000/mL such that 100 μL/well=2500 cells/well. Each cell line was seeded in the inner 60 wells of 96-well black walled TC plates, outer wells filled with water. HCC1954 were seeded a day prior to assay set up. Cytotoxins were diluted as described below a 5× dose-response of each compound was prepared using RPMI+10% FBS in a deep-well 96-well plate. This “master” dilution plate was used for each cell line. 25 μL of the 5× dose responses was spiked into each cell line in triplicate. The plates were returned to the incubator and were incubated for 3 nights. After the 3 nights, cell viability was quantified using 30 μL/well of 1× CellTiter-glo reagent. After at least 10 minutes of incubation, the luminescence was measured using the SpectraMax (500 ms integration).

Jurkat cells = test: Cell cycle arrest assay; format: cell-based; details: 50 nM, 24 h, propidium iodide
Method: Jurkat cells (ATCC), cultured in RMPI-1640 media supplemented with 10% FBS, were obtained in logarithmic growth. 1 million cells/ml were seeded into a 12-well tissue-culture treated plate in a 950 μL volume. Cells were treated with Compound 5 in 50 μL of growth media such that the final concentration of Compound 5 was 50 nM, control cells were given 50 μL of growth media alone. Cells were incubated for 24 h at 37° C., 5% CO2 in a humidified incubator. Following incubation, cells were thoroughly resuspended and transferred to 5 mL FACS tubes, and stored on ice. Two washes were performed by spinning cells down in a swinging-bucket centrifuge at 450×g for 4 min, resuspending in 1 mL ice-cold PBS. Cells were fixed through the addition of 3 mL ice-cold 100% ethanol in a dropwise fashion under vortex, and immediately stored at 4° C. for 1 h. During the 1 h incubation, the following staining solution was prepared in ice-cold PBS: 10 μg/ml propidium iodide, 10 U/ml RNAse 1f, and 0.05% Triton X-100. Following the 1 h fixation incubation, ethanol was removed by spinning cells as described above, and washing twice in 1 mL ice-cold PBS. Cells were resuspended in 500 μL of the above-mentioned staining solution, and incubated at room temperature for 1 h. […] Histograms were generated using FCS Express, plotting # of events against fluorescence in FL-3.

[2] = test system: Human gastric carcinoma cell line NCI-N87; test: Cellular cytotoxicity of compounds, Example 3.1 (CellTiter-Glo); format: cell-based; details: five nights
Method: as §1
as §2, with “water). Adherent cell lines were incubated for one night at 37° C./5% CO2 atmosphere to allow the cells to attach to the microtiter plate surface, while suspension (Jurkat) cells were plated immediately before use. Cytotoxins were dissolved and serially diluted in dimethyl sulfoxide and then the solutions were added to complete growth medium at five-times the desired maximum final concentration. The cytotoxins were then titrated in growth medium, normally 1:3, over eight steps. A control with no test article present (growth medium alone) was included on each microtiter plate in sextuplicate. The prepared toxin titrations were added (25 μL/well) in triplicate to each cell line assayed.” for “water).”

[3] = test system: Human Pancreatic cell line BxPC-3; test: as above; format: cell-based; details: five nights
Method: as §1
as §2, with “water). Adherent cell lines were incubated for one night at 37° C./5% CO2 atmosphere to allow the cells to attach to the microtiter plate surface, while suspension (Jurkat) cells were plated immediately before use. Cytotoxins were dissolved and serially diluted in dimethyl sulfoxide and then the solutions were added to complete growth medium at five-times the desired maximum final concentration. The cytotoxins were then titrated in growth medium, normally 1:3, over eight steps. A control with no test article present (growth medium alone) was included on each microtiter plate in sextuplicate. The prepared toxin titrations were added (25 μL/well) in triplicate to each cell line assayed.” for “water).”

[4] = test system: Human T-cell leukemia cell line Jurkat; test: as above; format: cell-based; details: three nights
Method: as §1
as §2, with “water). Adherent cell lines were incubated for one night at 37° C./5% CO2 atmosphere to allow the cells to attach to the microtiter plate surface, while suspension (Jurkat) cells were plated immediately before use. Cytotoxins were dissolved and serially diluted in dimethyl sulfoxide and then the solutions were added to complete growth medium at five-times the desired maximum final concentration. The cytotoxins were then titrated in growth medium, normally 1:3, over eight steps. A control with no test article present (growth medium alone) was included on each microtiter plate in sextuplicate. The prepared toxin titrations were added (25 μL/well) in triplicate to each cell line assayed.” for “water).”

## CN[C@H](C(=O)N[C@H](C(=O)N(C)[C@H](/C=C(\C)C(=O)O)C(C)C)C(C)(C)C)C(C)(C)c1ccccc1 [HTI-286]
[1]
  killing of all cell lines by control cytotoxin: successfully killed all cell lines at an expected concentration
Jurkat cell line
  killing of Jurkats by control cytotoxin: successfully killed Jurkats at an expected concentration

## CC[C@H](C)[C@@H]([C@@H](CC(=O)N1CCC[C@H]1[C@H](OC)[C@@H](C)C(=O)NS(=O)(=O)c1ccc(N)cc1)OC)N(C)C(=O)[C@@H](NC(=O)[C@H](C(C)C)N(C)C)C(C)C [Compound 5, (S)—N-((3R,4S,5S)-1-((S)-2-((1R,2R)-3-(4-Aminophenylsulfonamido)-1-methoxy-2-methyl-3-oxopropyl)pyrrolidin-1-yl)-3-methoxy-5-methyl-1-oxoheptan-4-yl)-2-((S)-2-(dimethylamino)-3-methylbutanamido)-N,3-dimethylbutanamide]
Jurkat cells
  DNA content histograms, cell cycle phase: pronounced shift towards G2/M phase of the cell cycle

## CC[C@H](C)[C@@H]([C@@H](CC(=O)N1CCC[C@H]1[C@H](OC)[C@@H](C)C(=O)NS(=O)(=O)c1ccc(NC(=O)C(F)(F)F)cc1)OC)N(C)C(=O)[C@@H](NC(=O)[C@@H](NC)C(C)(C)c1ccccc1)C(C)C [Compound 18]
[2]
  EC50: 0.9 nM
[3]
  EC50: 2.3 nM
[4]
  EC50: 1.5 nM

From patent US12152083B2 (priority 2014, dated 2024)
